# Experimental data reported in US12319726B2, “Method for treating CD40-mediated diseases” (CASE WESTERN RESERVE UNIVERSITY, priority 2008, dated 2025).
# Where no end group is shown, it is not given here.
# Legend:
# [1] = tested on: Human aortic endothelial cells (HAEC); assay: CD154-induced VCAM-1 upregulation in HAEC transduced with wild-type CD40 (FACS); assay type: cell-based; settings: second generation peptides (Tat MTD), 100 nM, p<0.02
# Description: FIGS. 2A-D are a series of graphs showing the induction of VCAM-1 (FIG. 2A), ICAM-1 (FIG. 2B), MCP-1 (FIG. 2C), and tissue factor (FIG. 2D) expression by TRAFs. Human aortic endothelial cells (HAEC) transduced with empty EGFP-encoding retroviral vector (MIEG3) or retroviral vector that encoded either wild type CD40 (wt CD40), CD40 with a mutation that prevents recruitment of TRAF2 and 3 (ΔT2, 3), recruitment of TRAF6 (ΔT6), or recruitment of TRAF2, 3, and 6 (ΔT2, 3, and 6) were incubated with or without CD154. VCAM-1, ICAM-1, and tissue factor were assessed by FACS on transduced (EGFP+) cells. cMFI=corrected Mean Fluorescence Intensity. MCP-1 was measured by ELISA (N=3).
# FIGS. 3A-B are a series of graphs showing the effects cell-permeable polypeptides that block CD40-TRAF interactions (T2,3BP and T6BP) on upregulation of VCAM-1 and MCP-1 in HAEC. HAEC were transduced with retroviral vectors encoding wild-type CD40 and incubated with or without CD154. HAEC were pre-treated with either control, TRAF2,3 blocking peptide (T2,3BP), or TRAF6 blocking peptide (T6BP) (200 μM) (N=2).
# FIG. 5 is a graph showing the effects of second generation TRAF2, 3 blocking peptide on VCAM-1 upregulation in HAEC.
# CD40 activates a variety of signaling cascades. […] Next, we determined if preventing the function of the TRAF2,3 binding site affects adhesion molecule upregulation. […]
# HAEC = assay: Viability of HAEC incubated with cell-permeable peptides; assay type: cell-based, human; settings: first generation cell-permeable peptides
# Excerpt: We used peptides that consisted of the amino acid sequence of the TRAF2,3 or the TRAF6 binding sites of CD40 fused a protein transduction domain derived from the Kaposi fibroblast growth factor to make the peptides cell-permeable, (SEQ ID NO: 1 or SEQ ID NO: 2, respectively). […] Thus, the results obtained with the blocking peptides were similar to those obtained with CD40 mutants.
# human Müller cells = assay type: cell-based
# Excerpt: (§1) Peptide consisted of the TRAF2,3 binding site of CD40 that was made cell permeable by linking them to the TAT47-57 cell penetrating peptide. Peptides were synthesized using D-amino acids following reverse amino acid sequence (ri format). The sequences for the CD40-TRAF2,3 blocking peptide was —NH2-rrrqrrkkrgy ghlteqvhaatn-OH (SEQ ID NO: 49). The TAT47-57 sequence is underlined. The peptide contains a proline (p) to histidine (h) substitution (shown in italics) that enhances affinity to TRAF2. Control (scrambled) peptide consisted of NH2-rrrqrrkkrgy ntqalahtgevh-OH (SEQ ID NO: 50). The blocking peptide was also synthesized with Alexa Fluor 488 conjugated via maleimide coupling to an additional Cys in the N terminus. Peptides were manufactured by Biopeptide Co. (San Diego, CA) and were low in endotoxin and >98% pure by HPLC. Peptides were used at 1 μM in vitro experiments and 1 μg for in vivo studies unless otherwise stated. Peptides were not toxic to human Müller and retinal endothelial cells as assessed by alamarBlue cell viability assay (Invitrogen Corporation).
# (§2) Primary human retinal endothelial cells were obtained as described (9) and cultured in complete medium supplemented with endothelial cell growth supplement from bovine pituitary (15 μg/ml; Sigma Chemical, St Louis, MO) and insulin/transferrin/selenium (Sigma Chemical). Cell identity was confirmed by incorporation of acetylated low-density lipoprotein (>90%). Endothelial cells were used between passages 3 to 6. The human Müller cell line MIO M1 (gift from Dr. Gloria Limb; University College London, UK; >95% vimentin^+, CRALBP^+ and GFAP^−) was also used. Endothelial cells were incubated with multimeric human CD154 to induce CD40 stimulation (obtained from Dr. Richard Kornbluth, Multimeric Biotherapeutics Inc., La Jolla, CA) or with a non-functional CD154 mutant (T147N) as control.
# (§3) Peptides were tested as described using the mouse endothelial cells mHEVc that expresses a chimera of the extracellular domain of human CD40 and intracytoplasmic domain of mouse CD40 (hmCD40) with either a mutation that prevents recruitment of TRAF2,3 (hmCD40 ΔT2,3) or TRAF6 (hmCD40 ΔT6). These cells were transfected with pGL4.32luc2P/NF-κB-RE/Hygro vector (Promega Corporation, Madison, WI) encoding an NF-κB response element that drives the luciferase reporter gene luc2P (Photinus pyralis). Cells were pre-incubated with peptides for 3 hr. followed by stimulation with human CD154. Luciferase activity was assessed using a Steady-Glo luciferase assay system (Promega Corporation) and a luminometer. The effects of peptides on cell viability were examined using alamarBlue cell viability assay.
# [2] = tested on: human retinal endothelial cells; assay type: cell-based
# Excerpt: as §1, §2, §3
# retinas subjected to I/R = assay: Model of retinal ischemia/reperfusion (I/R), intravitreal peptide; assay type: in vivo, B6 mice
# Description: FIGS. 20(A-C) illustrate images and graphs showing ri CD40-TRAF2,3 blocking peptide protects against loss of ganglion cells and leukocyte infiltration in retinas subjected to I/R. One eye from each B6 and CD40^−/− mouse was subjected to I/R. Contralateral non-ischemic eye was used as control. Eyes subjected to I/R in B6 mice were treated intravitreously with or without ri control peptide, ri CD40-TRAF2,3 blocking peptide (both 1 μg) 30 min prior to increase in IOP. Eyes were collected 2 d after I/R. A marked decrease in the number of ganglion cells is observed in ischemic eyes from B6 treated with ri control peptide or vehicle (original magnification ×400). […] Arrowhead plus asterix identifies a PMN magnified in the inset (original magnification ×600). Scale bar, 50 μm. Number of ganglion cells per mm. Number of infiltrating leukocytes in the inner retina and vitreous per section. GCL=Ganglion cell layer; IPL=Inner plexiform layer; INL=Inner nuclear layer. OPL=Outer plexiform layer; ONL=Outer nuclear layer. Data shown represent Mean±SEM (9 mice per group). *P<0.05; **P<0.01; […].
# FIG. 21 illustrates graphs showing ri CD40-TRAF2,3 blocking peptide impairs upregulation of NOS2 and COX-2 in retinas subjected to I/R. One eye of each mouse was treated as above and subjected to I/R. Eyes were collected after 2 d. mRNA levels of NOS2 and COX-2 were assessed by quantitative real time PCR. One non-ischemic eye from a B6 mouse was given an arbitrary value of 1 and data are expressed as fold-increase compared to this animal. Data shown represent Mean±SEM (7-9 mice per group). ***P<0.001.
# FIGS. 22(A-B) illustrate graphs and images showing ri CD40-TRAF2,3 blocking peptide impairs upregulation of ICAM-1 and KC/CXCL1 in retinal endothelial cells from retinas subjected to I/R. One eye of each mouse was subjected to I/R. Eyes were collected after 2 d. mRNA levels of ICAM-1 and KC/CXCL1 were assessed by quantitative real time PCR. One non-ischemic eye from a B6 mouse was given an arbitrary value of 1 and data are expressed as fold-increase compared to this animal. Data shown represent Mean±SEM (7-9 mice per group). ***P<0.001. Retinal sections were incubated with Tomato Lectin (labels endothelial cells) plus either anti-ICAM-1 or anti-KC/CXCL1 Ab. Original magnification ×600. GCL=Ganglion cell layer; IPL=Inner plexiform layer; INL=Inner nuclear layer. Scale bar, 10 μm. 6 mice/group.
# FIG. 23 illustrates images showing ri CD40-TRAF2,3 blocking peptide impairs NOS2 and KC/CXCL1 upregulation in Müller cells from retinas subjected to I/R. Eyes from B6 mice were treated with control peptide or CD40-TRAF2,3 blocking peptide, subjected to I/R and collected after 2 d. Retinal sections were incubated with anti-Vimentin Ab (labels Müller cells) plus either anti-NOS2 or anti-KC/CXCL1 Ab. Protein expression at the level of Müller cells stalks. […]. Original magnification ×600. Scale bar, 10 μm. 6 mice/group.
# FIGS. 24(A-D) illustrate images and graphs showing ri CD40-TRAF2,3 blocking peptide protects against loss of ganglion neurons and inflammation when administered after retinal I/R. One eye from each B6 mouse was subjected to I/R. Non-ischemic eyes were used as controls. Eyes that were subjected to I/R received either ri control peptide or ri CD40-TRAF2,3 blocking peptide 90 min after increase in IOP. Eyes were collected 2 d after I/R. Administration of the blocking peptide protects against ganglion cell loss and infiltration by leukocytes (arrowhead). Original magnification ×400. Scale bar, 50 μm. Number of ganglion cells per mm. Number of leukocytes in the inner retina and vitreous per section. mRNA levels of ICAM-1, KC/CXCL1, NOS2 and COX-2 were assessed by quantitative real time PCR as above. Data shown represent Mean±SEM (7-9 mice per group). **P<0.01; ***P<0.001. GCL=Ganglion cell layer; IPL=Inner plexiform layer; INL=Inner nuclear layer. […]
# [3] = 1 μg intravitreal prior to I/R, 2 d, real time PCR
# [4] = prior to I/R, 2 d, immunohistochemistry
molecule,measurement,setting,value
NTAAHVQETLHG YGRKKRRQRRR [SEQ ID NO: 13],inhibition of upregulation of VCAM-1 triggered by CD154,[1],60%
"AAVALLPAVLLALLAPSNTAAPVQETLHG [SEQ ID NO: 1, AAVALLPAVLLALLAP SNTAAPVQETLHG]",viability of HAEC,HAEC,did not affect viability
"CC(C)C[C@@H](NC(=O)[C@@H](C)NC(=O)[C@@H](CCC(N)=O)NC(=O)[C@H](NC(=O)[C@@H](CC(N)=O)NC(=O)[C@@H](Cc1ccc(O)cc1)NC(=O)CNC(=O)[C@@H](CCCNC(=N)N)NC(=O)[C@@H](CCCCN)NC(=O)[C@@H](CCCCN)NC(=O)[C@@H](CCCNC(=N)N)NC(=O)[C@@H](CCCNC(=N)N)NC(=O)[C@@H](CCC(N)=O)NC(=O)[C@@H](CCCNC(=N)N)NC(=O)[C@@H](CCCNC(=N)N)NC(=O)[C@H](N)CCCNC(=N)N)[C@H](C)O)C(=O)N[C@H](C)C(=O)N[C@H](Cc1c[nH]cn1)C(=O)N[C@@H](C(=O)NCC(=O)N[C@H](CCC(=O)O)C(=O)N[C@@H](C(=O)N[C@H](Cc1c[nH]cn1)C(=O)O)C(C)C)[C@H](C)O [ri control peptide, NH2-rrrqrrkkrgy ntqalahtgevh-OH, reference compound]",toxicity (alamarBlue cell viability assay),human Müller cells,not toxic
same,toxicity (alamarBlue cell viability assay),[2],not toxic
same,COX-2 mRNA levels in retina,retinas subjected to I/R; [3],upregulated
same,ICAM-1 mRNA levels in retina,retinas subjected to I/R; [3],marked upregulation
same,KC/CXCL1 mRNA levels in retina,retinas subjected to I/R; [3],marked upregulation
same,NOS2 mRNA levels in retina,retinas subjected to I/R; [3],upregulated
same,PMN infiltration in the inner retina and vitreous,"retinas subjected to I/R; 1 μg intravitreal prior to I/R, 2 d after I/R",developed PMN infiltration
same,loss of ganglion cells,"retinas subjected to I/R; 1 μg intravitreal prior to I/R, eyes collected 2 d after I/R",not altered
same,expression of ICAM-1 in retinal endothelial cells,retinas subjected to I/R; [4],increased
same,expression of KC/CXCL1 in Müller cells,retinas subjected to I/R; [4],increased KC/CXCL1 expression
same,expression of KC/CXCL1 in retinal endothelial cells,retinas subjected to I/R; [4],increased
same,expression of NOS2 in Müller cells,retinas subjected to I/R; [4],NOS2 upregulation
KQEPQEIDFPDD YGRKKRRQRRR [SEQ ID NO: 18],inhibition of upregulation of VCAM-1 triggered by CD154,[1],60%
"AAVALLPAVLLALLAPAPHPKQEPQEIDFPDD [SEQ ID NO: 2, AAVALLPAVLLALLAP APHPKQEPQEIDFPDD]",viability of HAEC,HAEC,did not affect viability
